Assay results reported in patent US11649475B2, “Dioxetane compounds and their use for the detection of microorganisms” (NEMIS Technologies AG, priority 2018, dated 2023).

Tests used:
[1] = system: phosphatidylinositol-specific phospholipase C (PI-PLC); experiment: Enzymatic assay of PI-PLC activity with Compound IIIa; format: biochemical; conditions: for RLU: 10 μM, PBS pH 7.4, 1% v/v DMSO
Experimental: Varying concentrations of phosphatidylinositol-specific phospholipase C (PI-PLC) were added and luminescence was recorded at room temperature (Table 4). Assays were performed in a white microtiter plate with 0.25 mL total liquid volume.

[2] = system: Escherichia coli ATCC 25922; experiment: Luminescence of culture samples after addition of Compound IIIa; format: cell-based; conditions: E.c., inoculation density 10^5 CFU/mL, 6 h cultivation, 10 μM
Experimental: (§1) Similar cell concentrations of all strains were inoculated in triplicate test tubes with M52 broth. In addition, further dilutions of L.m. 2 cells in sterile saline were inoculated in triplicate test tubes. Sterile saline was added to negative control tubes. […] Final concentration of Compound IIIa was 10 μM, final concentration of dimethyl sulfoxide was 1% v/v. Light emission was recorded with a plate reader equipped with a luminescence detection system. […] It was possible to detect 10^3 CFU/mL of Listeria monocytogenes after 6 h of incubation as indicated by a signal-to-noise ratio of 2 relative to sterile controls.

[3] = system: Listeria innocua (6a) ATCC 33090; experiment: as above; format: cell-based; conditions: L.i., inoculation density 10^5 CFU/mL, 6 h cultivation, 10 μM
Experimental: as §1

[4] = system: Listeria monocytogenes (4b) ATCC 19115; experiment: as above; format: cell-based; conditions: 6 h cultivation, 10 μM; for Mean RLU (n = 3): 16-20 min after addition
Experimental: as §1

[5] = system: Listeria monocytogenes ATCC 7644; experiment: as above; format: cell-based; conditions: L.m. 1, inoculation density 10^5 CFU/mL, 6 h cultivation, 10 μM
Experimental: as §1

[6] = L.m. 2, inoculation density 10^2 CFU/mL
[7] = L.m. 2, inoculation density 10^3 CFU/mL
[8] = L.m. 2, inoculation density 10^4 CFU/mL
[9] = L.m. 2, inoculation density 10^5 CFU/mL

COC(=O)/C=C/c1ccc(C2(OC)OOC23C2CC4CC(C2)CC3C4)c(Cl)c1OCc1ccc(OP(=O)(O)O[C@@H]2[C@H](O)[C@H](O)[C@@H](O)[C@H](O)[C@H]2O)cc1 (stereo partly shown) [Compound IIIa]
Signal to noise ratio ([1]; PI-PLC added 5 · 10^−1 U/mL): 862
RLU ([1]; PI-PLC added 5 · 10^−1 U/mL): 60265 RLU
Signal to noise ratio ([1]; PI-PLC added 5 · 10^−2 U/mL): 512
RLU ([1]; PI-PLC added 5 · 10^−2 U/mL): 35822 RLU
Signal to noise ratio ([1]; PI-PLC added 5 · 10^−3 U/mL): 148
RLU ([1]; PI-PLC added 5 · 10^−3 U/mL): 10369 RLU
Signal to noise ratio ([1]; PI-PLC added 5 · 10^−4 U/mL): 17
RLU ([1]; PI-PLC added 5 · 10^−4 U/mL): 1191 RLU
Signal to noise ratio (to sterile) [2]: 0.5
Mean RLU (n = 3) ([2]; 16-20 min after addition): 7 RLU
Signal to noise ratio (to sterile) [3]: 2.3
Mean RLU (n = 3) ([3]; 16-20 min after addition): 33 RLU
Signal to noise ratio (to sterile) [4, 6]: 0.9
Mean RLU (n = 3) [4, 6]: 12 RLU
Signal to noise ratio (to sterile) [4, 7]: 2.2
Mean RLU (n = 3) [4, 7]: 31 RLU
Signal to noise ratio (to sterile) [4, 8]: 17
Mean RLU (n = 3) [4, 8]: 242 RLU
Signal to noise ratio (to sterile) [4, 9]: 716
Mean RLU (n = 3) [4, 9]: 10258 RLU
Signal to noise ratio (to sterile) [5]: 832
Mean RLU (n = 3) ([5]; 16-20 min after addition): 11913 RLU
